Measurements: US9340549B2, “Oxazolidinone compounds and derivatives thereof” (priority 2012, dated 2016)
Where two headings read alike, the source gives them in different places.

Experiments:
Axin2 in SW480 cells = experiment: cells; type: cell-based; details: read-out: Axin2 384 IF EC50 IP
Description: Using a VPrep, 10 μL of compound/controls was transferred from the compound plate to 60 μL in the cell plate (final 0.5% DMSO, 70 μL). The mixture was incubated for 24 hours at 37° C. at 5% CO2.
The extra media was tapped out. 50 μL of 4% paraformaldehyde (Fisher, AA433689M), 0.1% Triton (Sigma, X100-100 ML) in PBS were added, and the mixture was incubated for 15 minutes at room temperature. […] The extra media was tapped out and to this was added 50 μL of buffer containing Axin2 Antibody (Sigma, SAB1100677-200 µL) at 1:10000 in PBS, 0.1% Tween-20, 1% Normal Goat Serum. The mixture was incubated for 2 hours at room temperature or overnight at 4° C. The cells were then washed twice with PBS, 0.1% Tween-20, and 1% Normal Goat Serum. […] The mixture was then incubated for 30 minutes at room temperature. The cells were then washed twice with PBS, 0.1% Tween-20, and 1% Normal Goat Serum. 50-100 μL PBS was added, and the mixture was covered with a plate seal (Fisher, NC9425162). An ArrayScan (a variation of the compartmental analysis protocol was optimized) was used to scan the plates, and data was analyzed using MEAN_RingSpotAvgIntenCh2). The Axin2 accumulation POC was calculated, and the EC50 was determined using Genedata Screener software to report Axin2 activity.

[1] = biological target: 6×HIS-tankyrase 1 (1091-1325) (Homo sapiens (Human), UniProt O95271); experiment: biochemical; type: biochemical; details: 400 nM NAD, 60 minutes at room temperature, read-out: TNKS1 IP IC50
[2] = test system: total β-catenin in SW480 colorectal cells; experiment: cells; type: cell-based
How it was run: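 SW480 cells in growth medium (MEM alpha, 10% heat-inactivated FBS, 10 mM HEPES) treated with a 10-point, 3-fold dilution series of TNKS inhibitor for 40–48 h at 37 °C. Lysates run on an MSD sandwich immunoassay for total β-catenin, read by electrochemiluminescence.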

[3] = Homo sapiens, SW480 cells, 24 hours
[4] = Homo sapiens, SW480 cells, 40 to 48 hours, top concentration 10 μM, read-out: SW480-Total β-Catenin IC50 IP
[5] = Homo sapiens, SW480, 24 h, SW480 cells, 24 hours
[6] = Homo sapiens, SW480, read-out: SW480-Total β-Catenin IC50 IP

Chain of 6×HIS-tankyrase 1 (1091-1325) (O95271 1091-1325): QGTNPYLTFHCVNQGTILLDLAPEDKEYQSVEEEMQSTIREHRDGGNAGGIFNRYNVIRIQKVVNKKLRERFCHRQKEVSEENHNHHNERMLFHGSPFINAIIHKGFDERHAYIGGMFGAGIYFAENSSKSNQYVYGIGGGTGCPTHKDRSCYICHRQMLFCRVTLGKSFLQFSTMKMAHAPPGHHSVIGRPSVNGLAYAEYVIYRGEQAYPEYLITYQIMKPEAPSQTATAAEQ

Compound	IC50 ([1]; […] enzyme)	IC50 [2, 4]	EC50 (Axin2 in SW480 cells; [5])	further results
CC1(c2ccccc2)CN([C@H]2CC[C@H](n3c(=O)[nH]c4ccccc43)CC2)C(=O)O1 (stereo partly drawn) [Example 34, (R+S) 5-methyl-3-((1r,4r)-4-(2-oxo-2,3-dihydro-1H-benzo[d]imidazol-1-yl)cyclohexyl)-5-phenyloxazolidin-2-one]	42.8 nM	829 nM	–	EC50 (Axin2 in SW480 cells; [3]): 2720 nM
CC1(c2ccccc2)CN([C@H]2CC[C@H](n3c(=O)[nH]c4cnccc43)CC2)C(=O)O1 (stereo partly drawn) [Example 89, (R+S)-5-methyl-3-((1r,4R)-4-(2-oxo-2,3-dihydro-1H-imidazo[4,5-c]pyridin-1-yl)cyclohexyl)-5-phenyloxazolidin-2-one]	17.2 nM	3440 nM	7030 nM	–
CC1(C)OC(=O)N([C@H]2CC[C@@H](c3c[nH]c(=O)c(-c4ncccn4)c3)CC2)[C@H]1c1ccccc1 [Example 96, (S)-5,5-Dimethyl-3-((1s,4R)-4-(6-oxo-5-(pyrimidin-2-yl)-1,6-dihydropyridin-3-yl)cyclohexyl)-4-phenyloxazolidin-2-one]	511 nM	> 10000 nM	> 25000 nM	–
CC1(C)OC(=O)N([C@H]2CC[C@H](n3c(=O)[nH]c4cnc(Cl)cc43)CC2)[C@H]1c1ccccc1 [Example 53, (S)-3-((1r,4S)-4-(6-chloro-2-oxo-2,3-dihydro-1H-imidazo[4,5-c]pyridin-1-yl)cyclohexyl)-5,5-dimethyl-4-phenyloxazolidin-2-one]	6.52 nM	284 nM	291 nM	–
CC1(C)OC(=O)N(c2ccc(-n3cc(-c4ncccn4)ccc3=O)cc2)[C@H]1c1ccccc1 [Example 127, (S)-5,5-dimethyl-3-(4-(2-oxo-5-(pyrimidin-2-yl)pyridin-1(2H)-yl)phenyl)-4-phenyloxazolidin-2-one]	280 nM	1100 nM	6270 nM	–
CC1(C)OC(=O)N([C@H]2CC[C@H](n3c(=O)[nH]c4cnccc43)CC2)[C@H]1c1ccc(F)cc1 [Example 55, (S)-4-(4-Fluorophenyl)-5,5-dimethyl-3-((1r,4S)-4-(2-oxo-2,3-dihydro-1H-imidazo[4,5-c]pyridin-1-yl)cyclohexyl)oxazolidin-2-one]	2.95 nM	145 nM	100 nM	–
Cc1ccccc1[C@@H]1N(c2ccc(C(=O)Nc3cccc4cccnc34)cc2)C(=O)OC1(C)C [Example 41, (S)-4-(5,5-dimethyl-2-oxo-4-(o-tolyl)oxazolidin-3-yl)-N-(quinolin-8-yl)benzamide]	116 nM	1980 nM	4370 nM	–
CC1(C)OC(=O)N([C@H]2CC[C@H](c3nnc(-c4ccccc4)o3)CC2)C1c1ccccc1 (stereo partly drawn) [Example 84, 5,5-dimethyl-4-phenyl-3-((1r,4r)-4-(5-phenyl-1,3,4-oxadiazol-2-yl)cyclohexyl)oxazolidin-2-one]	473 nM	4940 nM	7600 nM	–
CC1(C)OC(=O)N([C@H]2CC[C@H](c3cnc4[nH]c(=O)n(-c5ncccn5)c4c3)CC2)[C@H]1c1ccccc1 [Example 98, (S)-5,5-dimethyl-3-((1r,4S)-4-(2-oxo-1-(pyrimidin-2-yl)-2,3-dihydro-1H-imidazo[4,5-b]pyridin-6-yl)cyclohexyl)-4-phenyloxazolidin-2-one]	0.316 nM	48.2 nM	35.7 nM	–
CC1(C)OC(=O)N([C@H]2CC[C@H](n3c(=O)[nH]c4cnc(C(F)(F)F)cc43)CC2)[C@H]1c1ccccc1 [Example 52, (S)-5,5-dimethyl-3-((1r,4S)-4-(2-oxo-6-(trifluoromethyl)-2,3-dihydro-1H-imidazo[4,5-c]pyridin-1-yl)cyclohexyl)-4-phenyloxazolidin-2-one]	25.8 nM	693 nM	1030 nM	–
C[C@]1(c2ccccc2)CN([C@H]2CC[C@H](n3c(=O)[nH]c4cnccc43)CC2)C(=O)O1 (single isomer, unassigned) [Example 91]	9.01 nM	3610 nM	4430 nM	–
CC1(C)OC(=O)N(c2ccc(-n3c(=O)[nH]c4ccccc43)nc2)[C@H]1c1ccccc1 [Example 22, (S)-5,5-dimethyl-3-(6-(2-oxo-2,3-dihydro-1H-benzo[d]imidazol-1-yl)pyridin-3-yl)-4-phenyloxazolidin-2-one]	1430 nM	> 10000 nM	> 25000 nM	–
CC1(C)OC(=O)N(c2ccc(-c3nnc4ccc(Cl)nn34)cc2)[C@H]1c1ccccc1 [Example 68, (S)-3-(4-(6-chloro-[1,2,4]triazolo[4,3-b]pyridazin-3-yl)phenyl)-5,5-dimethyl-4-phenyloxazolidin-2-one]	1980 nM	> 10000 nM	> 25000 nM	–
CC1(C)OC(=O)N(c2ccc(-n3c(=O)[nH]c4cnccc43)cc2)[C@H]1c1ccccc1 [Example 16, (S)-5,5-dimethyl-3-(4-(2-oxo-2,3-dihydro-1H-imidazo[4,5-c]pyridin-1-yl)phenyl)-4-phenyloxazolidin-2-one]	114 nM	2540 nM	8190 nM	–
(S)-5,5-dimethyl-3-(4-(2-oxo-1H-imidazo[4,5-c]pyridin-3(2H)-yl)phenyl)-4-phenyloxazolidin-2-one [Example 15]	105 nM	–	–	EC50 (Axin2 in SW480 cells; SW480 cells, 24 hours): 4150 nM; IC50 ([2]; SW480 cells, 40 to 48 hours, top concentration 10 μM, read-out: SW480-Total β-Catenin IC50 IP): 992 nM
COc1ccc(C2N(c3ccc(C(=O)Nc4cccc5cccnc45)cc3)C(=O)OC2(C)C)cc1 (racemic) [Example 111, (+/−)-(R/S)-4-(4-(4-methoxyphenyl)-5,5-dimethyl-2-oxooxazolidin-3-yl)-N-(quinolin-8-yl)benzamide]	–	2440 nM	7260 nM	IC50 ([1]; 0.25 nM enzyme): 631 nM
C[C@@]1(c2ccccc2)CN([C@H]2CC[C@H](n3c(=O)[nH]c4cnccc43)CC2)C(=O)O1 (single isomer, unassigned) [Example 90]	772 nM	> 10000 nM	> 25000 nM	–
CC1(C)OC(=O)N([C@H]2CC[C@H](c3cc(-c4ncccn4)c[nH]c3=O)CC2)[C@H]1c1ccccc1 [Example 81, 3-(trans-4-((4S)-5,5-dimethyl-2-oxo-4-phenyl-1,3-oxazolidin-3-yl)cyclohexyl)-5-(2-pyrimidinyl)-2(1H)-pyridinone]	11.4 nM	–	–	EC50 (Axin2 in SW480 cells; Homo sapiens, SW480, 24 h): 840 nM; IC50 [2, 6]: 767 nM
CCC1(CC)OC(=O)N(c2ccc(C(=O)Nc3cccc4cccnc34)cc2)[C@H]1c1ccccc1 [Example 43, (S)-4-(5,5-diethyl-2-oxo-4-phenyloxazolidin-3-yl)-N-(quinolin-8-yl)benzamide]	786 nM	> 10000 nM	–	EC50 (Axin2 in SW480 cells; [3]): > 25000 nM
CC1(C)OC(=O)N(c2ccc(C(=O)Nc3cccc4cccnc34)cc2)C1c1ccccc1F (stereo not drawn) [Example 42, (R+S) 4-(4-(2-fluorophenyl)-5,5-dimethyl-2-oxooxazolidin-3-yl)-N-(quinolin-8-yl)benzamide]	263 nM	4870 nM	9400 nM	–
CC1(C)OC(=O)N(c2ccc3c(c2)CCN(c2cccc4cccnc24)C3=O)[C@H]1c1ccccc1 [Example 63, (S)-5,5-dimethyl-3-(1-oxo-2-(quinolin-8-yl)-1,2,3,4-tetrahydroisoquinolin-6-yl)-4-phenyloxazolidin-2-one]	7050 nM	> 10000 nM	> 25000 nM	–
CC1(C)OC(=O)N([C@H]2CC[C@H](c3cc(-c4ncccn4)c[nH]c3=O)CC2)[C@@H]1c1ccccc1 [Example 82, 3-(trans-4-((4R)-5,5-dimethyl-2-oxo-4-phenyl-1,3-oxazolidin-3-yl)cyclohexyl)-5-(2-pyrimidinyl)-2(1H)-pyridinone]	195 nM	–	–	EC50 (Axin2 in SW480 cells; Homo sapiens, SW480, 24 h): 7130 nM; IC50 [2, 6]: 1340 nM
CC1(C)OC(=O)N([C@H]2CC[C@H](c3c[nH]c(=O)c(-c4ncccn4)c3)CC2)[C@H]1c1ccccc1 [Example 97, (S)-5,5-Dimethyl-3-((1r,4S)-4-(6-oxo-5-(pyrimidin-2-yl)-1,6-dihydropyridin-3-yl)cyclohexyl)-4-phenyloxazolidin-2-one]	267 nM	4430 nM	> 25000 nM	–
CC1(C)OC(=O)N([C@H]2CC[C@H](n3c(=O)[nH]c4cnc(C#N)cc43)CC2)[C@H]1c1ccccc1 [Example 54, 1-((1S,4r)-4-((S)-5,5-dimethyl-2-oxo-4-phenyloxazolidin-3-yl)cyclohexyl)-2-oxo-2,3-dihydro-1H-imidazo[4,5-c]pyridine-6-carbonitrile]	7.42 nM	605 nM	725 nM	–
